Assay [1] has as its target T1, flkGST (Homo sapiens, UniProt P35968).
T1 construct: GST
Put plainly: bio flkGST assay. The class given is biochemical.

In assay [2] the target is T2, PDGFR-β (Homo sapiens, UniProt P09619).
T2 construct: host or cells: NIH 3T3
Kind of assay: Biochemical PDGFR assay (ELISA, PDGFR-β expressing NIH 3T3 cell lysate). To be noted: read-out: bio PDGF IC50. In outline: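 Phosphorylation was read by ELISA (anti-phosphotyrosine serum, peroxidase secondary, ABTS at 410 nm) after a 30 min room-temperature reaction with 20 μM ATP, EDTA-stopped. Kinase was lysate-derived PDGFR-β (NIH 3T3) immobilised via 28D4C10 antibody, compound added 30 min before ATP.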
In general terms: An ELISA detects its analyte on a solid surface through an enzyme-linked reagent.

For orientation: IC50 means the concentration at which inhibition is half-maximal.

T1 sequence (P35968 786-1356 limits assumed): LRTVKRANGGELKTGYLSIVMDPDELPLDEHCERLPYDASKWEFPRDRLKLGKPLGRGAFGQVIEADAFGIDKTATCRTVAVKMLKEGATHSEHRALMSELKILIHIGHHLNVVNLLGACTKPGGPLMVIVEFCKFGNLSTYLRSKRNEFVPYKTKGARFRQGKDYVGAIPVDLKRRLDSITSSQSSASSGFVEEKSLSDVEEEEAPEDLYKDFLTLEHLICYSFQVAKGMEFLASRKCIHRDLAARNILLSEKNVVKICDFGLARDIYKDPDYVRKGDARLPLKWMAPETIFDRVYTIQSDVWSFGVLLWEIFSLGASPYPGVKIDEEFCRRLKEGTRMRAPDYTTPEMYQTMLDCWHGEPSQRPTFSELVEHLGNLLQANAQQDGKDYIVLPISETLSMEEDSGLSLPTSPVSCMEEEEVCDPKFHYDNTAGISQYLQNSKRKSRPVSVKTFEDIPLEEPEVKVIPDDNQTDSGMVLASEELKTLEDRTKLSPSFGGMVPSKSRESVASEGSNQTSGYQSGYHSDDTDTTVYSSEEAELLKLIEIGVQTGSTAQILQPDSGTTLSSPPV
T2 sequence (P09619 33-1106): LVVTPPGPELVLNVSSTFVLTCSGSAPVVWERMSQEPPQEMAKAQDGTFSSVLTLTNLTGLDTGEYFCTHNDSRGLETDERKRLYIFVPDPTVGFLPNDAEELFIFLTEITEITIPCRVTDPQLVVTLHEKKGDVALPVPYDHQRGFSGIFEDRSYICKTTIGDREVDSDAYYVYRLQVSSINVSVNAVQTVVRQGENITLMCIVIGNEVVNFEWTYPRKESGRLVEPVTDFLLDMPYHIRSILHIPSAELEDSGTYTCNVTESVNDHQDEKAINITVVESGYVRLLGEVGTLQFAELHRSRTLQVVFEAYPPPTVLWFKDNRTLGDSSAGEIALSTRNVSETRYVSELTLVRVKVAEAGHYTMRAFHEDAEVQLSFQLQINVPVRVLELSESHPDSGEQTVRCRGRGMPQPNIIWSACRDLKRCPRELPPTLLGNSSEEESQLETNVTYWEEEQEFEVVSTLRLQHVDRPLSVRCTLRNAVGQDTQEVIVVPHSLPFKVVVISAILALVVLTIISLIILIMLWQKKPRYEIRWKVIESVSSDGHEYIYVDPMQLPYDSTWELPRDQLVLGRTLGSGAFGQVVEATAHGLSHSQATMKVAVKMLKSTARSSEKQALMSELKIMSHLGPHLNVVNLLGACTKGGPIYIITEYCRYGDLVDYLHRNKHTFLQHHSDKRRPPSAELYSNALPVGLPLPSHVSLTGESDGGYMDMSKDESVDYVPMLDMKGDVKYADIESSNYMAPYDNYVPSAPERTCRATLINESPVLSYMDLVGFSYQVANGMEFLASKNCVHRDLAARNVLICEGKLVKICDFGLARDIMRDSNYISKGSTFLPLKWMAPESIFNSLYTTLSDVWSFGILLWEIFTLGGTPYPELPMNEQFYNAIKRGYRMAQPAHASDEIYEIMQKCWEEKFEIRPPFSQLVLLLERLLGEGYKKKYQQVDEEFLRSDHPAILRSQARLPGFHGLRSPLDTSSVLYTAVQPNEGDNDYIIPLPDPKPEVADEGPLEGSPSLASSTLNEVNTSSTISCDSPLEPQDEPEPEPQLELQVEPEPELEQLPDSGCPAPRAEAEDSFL

Turning to `CCOC(=O)c1c(C)[nH]c(/C=C2\C(=O)Nc3ccc(Br)cc32)c1CCC(=O)O` [Compound 114, 5-(5-Bromo-2-oxo-1,2-dihydroindol-3-ylidenemethyl)-4-(2-carboxyethyl)-2-methyl-1H-pyrrole-3-carboxylic acid ethyl ester], the IC50 in assay [1] is 3310 nM; in assay [2], 50 nM. The like results for `Cc1cc(CCC(=O)O)c(/C=C2\C(=O)Nc3ccc(Br)cc32)[nH]1` [Compound 116, 3-[2-(5-Bromo-2-oxo-1,2-dihydroindol-3-ylidenemethyl)-5-methyl-1H-pyrrol-3-yl]-propionic acid] were, in that order, 100 nM and 20 nM. Consider `COc1c(C(C)C)cc(/C=C2/C(=O)Nc3ccccc32)cc1C(C)C` [Example 1, 3-(3,5-Diisopropyl-4-methoxybenzylidene)-1,3-dihydroindol-2-one], for which, in assay [2], the IC50 was above 100000 nM.

As for `COc1c(C(C)C)cc(/C=C2/C(=O)Nc3ccc(Cl)cc32)cc1C(C)C` [Example 2, 5-Chloro-3-(3,5-diisopropyl-4-methoxybenzylidene)-1,3-dihydroindol-2-one], the IC50 in assay [2] is above 100000 nM. Same read-out and setting: with `O=C1Nc2ccc(N=Cc3cc4ccccc4[nH]3)cc2C1=Cc1cc2ccccc2[nH]1` [Example 171, 3-(1H-indol-2-ylmethylene)-5-[(1H-indol-2-ylmethylene)-amino]-1,3-dihydroindol-2-one] the figure was 68600 nM. As to `NS(=O)(=O)c1ccc2c(c1)/C(=C/c1c[nH]c3ccccc13)C(=O)N2` [Example 172, 3-(1H-Indol-3-ylmethylene)-2-oxo-2,3-dihydro-1H-indole-5-sulfonic acid amide], the IC50 in assay [1] is 10500 nM; in assay [2], 89400 nM. The like results for `CNS(=O)(=O)c1ccc2c(c1)/C(=C/c1cc3ccccc3[nH]1)C(=O)N2` [Example 173, 3-(1H-Indol-2-ylmethylene)-2-oxo-2,3-dihydro-1H-indole-5-sulfonic acid methylamide] were, in that order, 11100 nM and 69100 nM. The like results for `O=C1Nc2ccc(C(=O)O)cc2/C1=C/c1c[nH]c2ccccc12` [Example 174, 3-(1H-Indol-3-ylmethylene)-2-oxo-2,3-dihydro-1H-indole-5-carboxylic acid] were, in that order, 1850 nM and 2500 nM. The corresponding values for `O=C1Nc2ccc(C(=O)O)cc2/C1=C/c1ccc2[nH]ccc2c1` [Example 177, 3-(1H-Indol-5-ylmethylene)-2-oxo-2,3-dihydro-1H-indole-5-carboxylic acid] are 1340 nM and above 100000 nM. As to `Nc1ccc2c(c1)/C(=C/c1ccc3[nH]ccc3c1)C(=O)N2` [Example 179, 5-Amino-3-(1H-indol-5-ylmethylene)-1,3-dihydro-indol-2-one], the IC50 is 1840 nM in assay [1] and above 100000 nM in assay [2]. The corresponding values for `Cc1c(/C=C2\C(=O)Nc3ccc(N)cc32)[nH]c2ccccc12` [Example 180, 5-Amino-3-(3-methyl-1H-indol-2-ylmethylene)-1,3-dihydroindol-2-one] are 1110 nM and 1110 nM. The corresponding values for `Cc1[nH]c2ccccc2c1/C=C1\C(=O)Nc2ccc(C(=O)O)cc21` [Example 182, 3-(2-Methyl-1H-indol-3-ylmethylene)-2-oxo-2,3-dihydro-1H-indole-5-carboxylic acid] are 18700 nM and 5400 nM. For the molecule `Cc1[nH]c2ccccc2c1/C=C1\C(=O)Nc2ccc(N)cc21` [Example 187, 5-Amino-3-(2-methyl-1H-indol-3-ylmethylene)-1,3-dihydroindol-2-one], the IC50 in assay [1] is above 20000 nM; in assay [2], above 100000 nM. `O=C(O)CCc1c(/C=C2\C(=O)Nc3ccccc32)[nH]c2c1CCCC2` [Example 190, 3-[2-(2-Oxo-1,2-dihydro-indol-3-ylidenemethyl)-4,5,6,7-tetrahydro-1H-indol-3-yl]-propionic acid]: the IC50 came to 87 nM in assay [1] and 2080 nM in assay [2]. The corresponding values for `O=C(O)CCc1c(/C=C2\C(=O)Nc3ccc(Cl)cc32)[nH]c2c1CCCC2` [Example 191, 3-[2-(5-Chloro-2-oxo-1,2-dihydroindol-3-ylidenemethyl)-4,5,6,7-tetrahydro-1H-indol-3-yl]-propionic acid] are 40 nM and 50 nM. The corresponding values for `O=C(O)CCc1c(/C=C2\C(=O)Nc3ccc(Br)cc32)[nH]c2c1CCCC2` [Example 192, 3-[2-(5-Bromo-2-oxo-1,2-dihydroindol-3-ylidenemethyl)-4,5,6,7-tetrahydro-1H-indol-3yl]-propionic acid] are 30 nM and 4 nM.

Turning to `Cc1cccc2c1/C(=C/c1[nH]c3c(c1CCC(=O)O)CCCC3)C(=O)N2` [Example 193, 3-[2-(4-Methyl-2-oxo-1,2-dihydroindol-3-ylidenemethyl)-4,5,6,7-tetrahydro-1H-indol-3-yl]-propionic acid], the IC50 was 3600 nM in assay [1] and 44600 nM in assay [2]. The like results for `Cc1ccc2c(c1)/C(=C/c1[nH]c3c(c1CCC(=O)O)CCCC3)C(=O)N2` [Example 194, 3-[2-(5-Methyl-2-oxo-1,2-dihydroindol-3-ylidenemethyl)-4,5,6,7-tetrahydro-1H-indol-3-yl]-propionic acid] were, in that order, 6670 nM and 81400 nM.

Consider `O=C(O)CCc1c(/C=C2\C(=O)Nc3cc(Cl)ccc32)[nH]c2c1CCCC2` [Example 195, 3-[2-(6-Chloro-2-oxo-1,2-dihydroindol-3-ylidenemethyl)-4,5,6,7-tetrahydro-1H-indol-3-yl]-propionic acid], for which the IC50 was 4350 nM in assay [1] and 2040 nM in assay [2]. The corresponding values for `COc1ccc2c(c1)NC(=O)/C2=C\c1[nH]c2c(c1CCC(=O)O)CCCC2` [Example 196, 3-[2-(6-Methoxy-2-oxo-1,2-dihydroindol-3-ylidenemethyl)-4,5,6,7-tetrahydro-1H-indol-3-yl]-propionic acid] are 410 nM and 33700 nM. Turning to `CN(C)C(=O)CCc1c(/C=C2\C(=O)Nc3ccccc32)[nH]c2c1CCCC2` [Example 197, N,N-Dimethyl-3-[2-(2-oxo-1,2-dihydroindol-3-ylidenemethyl)-4,5,6,7-tetrahydro-1H-indol-3-yl]-propionamide], the values for the IC50 in assay [1] and in assay [2] were 610 nM and above 100000 nM, respectively.

Take `CN(C)CCCc1c(/C=C2\C(=O)Nc3ccccc32)[nH]c2c1CCCC2` [Example 198, 3-[3-(3-Dimethylaminopropyl)-4,5,6,7-tetrahydro-1H-indol-2-ylmethylene]-1,3-dihydroindol-2-one]: the IC50 in assay [1] came to 5840 nM; in assay [2], 40 nM. The corresponding values for `NC(=O)CCc1c(/C=C2\C(=O)Nc3ccccc32)[nH]c2c1CCCC2` [Example 199, 3-[2-(2-Oxo-1,2-dihydroindol-3-ylidenemethyl)-4,5,6,7-tetrahydro-1H-indol-3-yl]-propionamide] are 170 nM and 890 nM. For the molecule `O=C1Nc2ccccc2/C1=C/c1[nH]c2c(c1CCC(=O)N1CCOCC1)CCCC2` [Example 200, 3-[3-(3-Morpholin-4-yl-3-oxopropyl)-4,5,6,7-tetrahydro-1H-indol-2-ylmethylene]-1,3-dihydroindol-2-one], the values for the IC50 in assay [1] and in assay [2] were 1290 nM and 11800 nM, respectively. The like results for `CNC(=O)CCc1c(/C=C2\C(=O)Nc3ccccc32)[nH]c2c1CCCC2` [Example 201, N-Methyl-3-[2-(2-oxo-1,2-dihydroindol-3-ylidenemethyl)-4,5,6,7-tetrahydro-1H-indol-3-yl]-propionamide] were, in that order, 570 nM and 1730 nM. The corresponding values for `O=C(CCc1c(/C=C2\C(=O)Nc3ccccc32)[nH]c2c1CCCC2)NCCN1CCOCC1` [Example 202, N-(2-Morpholin-4-ylethyl)-3-[2-(2-oxo-1,2-dihydroindol-3-ylidenemethyl)-4,5,6,7-tetrahydro-1H-indol-3-yl]-propionamide] are 2540 nM and 9580 nM. For the molecule `O=C(O)CCc1c(/C=C2\C(=O)Nc3ncccc32)[nH]c2c1CCCC2` [Example 203, 3-[2-(2-Oxo-1,2-dihydropyrrolo[2,3-b]pyridin-3-ylidenemethyl)-4,5,6,7-tetrahydro-1H-indol-3-yl]-propionic acid], the 50% inhibitory concentration (IC50) in assay [2] turned out to be 150 nM.

Turning to `COc1cccc(-c2ccc3c(c2)NC(=O)/C3=C\c2[nH]c3c(c2CCC(=O)O)CCCC3)c1` [Example 204, 3-{2-[6-(3-Methoxyphenyl)-2-oxo-1,2-dihydro-indol-3-ylidenemethyl]-4,5,6,7-tetrahydro-1H-indol-3-yl}-propionic acid], the figures for the IC50 in assay [1] and in assay [2] were 70 nM and 680 nM, respectively. The like results for `COc1ccc(-c2ccc3c(c2)NC(=O)/C3=C\c2[nH]c3c(c2CCC(=O)O)CCCC3)cc1` [Example 205, 3-{2-[6-(4-Methoxyphenyl)-2-oxo-1,2-dihydro-indol-3-ylidenemethyl]-4,5,6,7-tetrahydro-1H-indol-3-yl}-propionic acid] were, in that order, 440 nM and 5430 nM. As to `O=C(O)CCc1ccccc1/C=C1/C(=O)Nc2ccccc21` [Example 214, 3-[2-(2-Oxo-1,2-dihydroindol-3-ylidenemethyl)-phenyl]-propionic acid], the half-inhibitory concentration (IC50) in assay [2] is above 100000 nM. With `Cc1c[nH]c(/C=C2\C(=O)Nc3ccc(Cl)cc32)c1CCC(=O)O` [Example 216, 3-[2-(5-Chloro-2-oxo-1,2-dihydroindol-3-ylidenemethyl)-4-methyl-1H-pyrrol-3-yl]-propionic acid], the IC50 in assay [2] came out at 220 nM. With `COc1ccc2c(c1)NC(=O)/C2=C\c1[nH]cc(C)c1CCC(=O)O` [Example 217, 3-[2-(6-Methoxy-2-oxo-1,2-dihydroindol-3-ylidenemethyl)-4-methyl-1H-pyrrol-3-yl]-propionic acid], the IC50 in assay [2] amounted to 210 nM. The same measure, in the same setting: then `Cc1c[nH]c(C=C2C(=O)Nc3cc(Cl)ccc32)c1CCC(=O)O` [Example 219, 3-[2-(6-Chloro-2-oxo-1,2-dihydroindol-3-ylidenemethyl)-4-methyl-1H-pyrrol-3-yl]-propionic acid], with 470 nM.

The record behind these values is patent US6855730B2, “3-methylidenyl-2-indolinone modulators of protein kinase” (Sugen, Inc., priority 1998, dated 2005).
